{
  "source": "patent US20180312930A1",
  "about": "“METHOD FOR ANALYZING A SAMPLE TO DETECT THE PRESENCE OF SULPHITE-RESISTANT YEASTS OF THE BRETTANOMYCES BRUXELLENSIS SPECIES AND KIT FOR IMPLEMENTING SAME” (UNIVERSITE DE BORDEAUX, priority 2015, published 2018)",
  "test_in_all_cases": "capacity of strains to grow in the presence of sulphur dioxide",
  "assay_type_in_all_cases": "cell-based",
  "key": {"[1]": {"system": "Brettanomyces bruxellensis strains of the beer triploid group", "settings": "14 days of culture, 8 strains tested", "description": "(§1) The 33 strains of Brettanomyces bruxellensis are cultivated in a medium in the absence or the presence of different concentrations of sulphur dioxide SO2 in the culture medium (0 mg/L, 0.2 mg/L, 0.4 mg/L and 0.6 mg/L).\n(§2) After 14 days of culture, the capacity of the strains to grow in the different media is evaluated."}, "[2]": {"system": "Brettanomyces bruxellensis strains of the oenological diploid group", "settings": "14 days of culture, 17 strains tested", "description": "as §1, §2"}, "[3]": {"system": "Brettanomyces bruxellensis strains of the oenological triploid group", "settings": "14 days of culture, 8 strains tested", "description": "as §1, §2"}, "[4]": {"settings": "0.2 mg/L active SO2 in the culture medium"}, "[5]": {"settings": "0.4 mg/L active SO2 in the culture medium"}, "[6]": {"settings": "0.6 mg/L active SO2 in the culture medium"}},
  "data": [
    {"molecule": "O=S=O", "note": "[sulphur dioxide]", "values": [
      {"measurement": "Number of strains with the capacity to grow", "setting": "[1]; [4]", "value": 3},
      {"measurement": "Number of strains with the capacity to grow", "setting": "[1]; [5]", "value": 0},
      {"measurement": "Number of strains with the capacity to grow", "setting": "[1]; [6]", "value": 0},
      {"measurement": "Number of strains with the capacity to grow", "setting": "[2]; [4]", "value": 6},
      {"measurement": "Number of strains with the capacity to grow", "setting": "[2]; [5]", "value": 1},
      {"measurement": "Number of strains with the capacity to grow", "setting": "[2]; [6]", "value": 0},
      {"measurement": "Number of strains with the capacity to grow", "setting": "[3]; [4]", "value": 8},
      {"measurement": "Number of strains with the capacity to grow", "setting": "[3]; [5]", "value": 8},
      {"measurement": "Number of strains with the capacity to grow", "setting": "[3]; [6]", "value": 4}
    ]}
  ]
}
